Where two headings read alike, the source gives them in different places. Numbered stars: 1 amine (or outer) side, 2 acyl side, 3 side chain; on linkers, the order of the positions; unused ones are H or OH. Bridge positions count the residues as written; N and C are the ends. Square brackets hold non-standard residues; d marks the D form. Peptide text beside a SMILES is read from it. NGly(3-aminopropyl) = O=C(CN(CCCN[*:3])[*:1])[*:2]; N(2-Aminoethyl)Gly = O=C(CN(CCN[*:3])[*:1])[*:2]; N(CH2CH2CO)Gly = O=C(CN(CCC(=O)[*:3])[*:1])[*:2]
Assays:
[1] = biological target: T1, BK2 receptors (Cavia porcellus, UniProt O70526); experiment: Bradykinin antagonist assay, guinea-pig ileum contraction
T1 construct: This tissue contains predominantly BK2 receptors; from tissue; host or cells: guinea-pig ileum, longitudinal muscle layer with adhering mesenteric plexus
T1 sequence (O70526 1-372): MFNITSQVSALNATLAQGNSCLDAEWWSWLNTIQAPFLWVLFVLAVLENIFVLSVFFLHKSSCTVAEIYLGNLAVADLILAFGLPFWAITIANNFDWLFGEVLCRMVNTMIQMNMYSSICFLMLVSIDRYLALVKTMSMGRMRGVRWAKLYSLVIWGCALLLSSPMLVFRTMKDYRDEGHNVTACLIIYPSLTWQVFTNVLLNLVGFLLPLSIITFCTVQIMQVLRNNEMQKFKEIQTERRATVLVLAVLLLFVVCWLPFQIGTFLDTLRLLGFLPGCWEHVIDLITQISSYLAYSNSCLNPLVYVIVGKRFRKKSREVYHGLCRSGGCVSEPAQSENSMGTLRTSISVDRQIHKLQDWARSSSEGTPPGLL
Protocol: The ileum of the guinea-pig was selected as the preparation for the bioassay. This tissue contains predominantly BK2 receptors. The preparation consists of the longitudinal muscle layer with the adhering mesenteric plexus. The isolated preparation was kept in Krebs solution and contractions were measured with an isometric force transducer. […] Atropine (1 μM) was always present.

[2] = In vitro biostability in human serum; format: in vitro ADME; settings: 37° C., HPLC determination of peptide degradation over time, compared with PTR 3001, octreotide, SRIF
Protocol: The in vitro biostability of a SST cyclic peptide analog, PTR 3002, was measured in human serum, and was compared to the same sequence in a non-cyclic peptide analog (PTR 3001), to octreotide (Sandostatin), and to native somatostatin (SRIF). […] The assay was based on HPLC determination of peptide degradation as a function of time at 37° C.

[3] = biological target: T2, Somatostatin Receptor (SSTR) Subtype SSTR 2B (Homo sapiens, UniProt P30874); experiment: Inhibition of radioactive iodinated somatostatin (SRIF-14) binding, CHO cells expressing SSTR 2B; settings: read-out: percent inhibition of radioactive iodinated somatostatin (SRIF-14) binding, SSTR 2B; for inhibition at 1 µM: Conc. 10^-6 M; for inhibition at 0.1 µM: Conc. 10^-7 M; for inhibition at 0.01 µM: Conc. 10^-8 M
T2 construct: expressed in transfected cells; host or cells: CHO cells
T2 sequence (P30874 1-356 isoform P30874-2): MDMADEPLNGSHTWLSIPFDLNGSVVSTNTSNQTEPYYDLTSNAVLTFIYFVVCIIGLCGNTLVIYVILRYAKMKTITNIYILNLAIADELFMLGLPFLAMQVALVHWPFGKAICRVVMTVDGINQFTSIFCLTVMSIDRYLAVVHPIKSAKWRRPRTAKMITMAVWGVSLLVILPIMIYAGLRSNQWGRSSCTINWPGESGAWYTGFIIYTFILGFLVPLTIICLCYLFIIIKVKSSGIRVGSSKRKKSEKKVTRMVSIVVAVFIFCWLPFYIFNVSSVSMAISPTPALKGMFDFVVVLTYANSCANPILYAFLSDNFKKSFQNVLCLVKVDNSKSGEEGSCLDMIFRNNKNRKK
From the text: (§1) The values presented are percent inhibition of radioactive iodinated somatostatin (SRIF-14) binding.

[4] = biological target: T3, Somatostatin Receptor (SSTR) Subtype SSTR 5 (Homo sapiens, UniProt P35346); experiment: Inhibition of radioactive iodinated somatostatin (SRIF-14) binding, CHO cells expressing SSTR 5; settings: read-out: percent inhibition of radioactive iodinated somatostatin (SRIF-14) binding, SSTR 5; for inhibition at 1 µM: Conc. 10^-6 M; for inhibition at 0.1 µM: Conc. 10^-7 M; for inhibition at 0.01 µM: Conc. 10^-8 M
T3 construct: expressed in transfected cells; host or cells: CHO cells
T3 sequence (P35346 whole entry): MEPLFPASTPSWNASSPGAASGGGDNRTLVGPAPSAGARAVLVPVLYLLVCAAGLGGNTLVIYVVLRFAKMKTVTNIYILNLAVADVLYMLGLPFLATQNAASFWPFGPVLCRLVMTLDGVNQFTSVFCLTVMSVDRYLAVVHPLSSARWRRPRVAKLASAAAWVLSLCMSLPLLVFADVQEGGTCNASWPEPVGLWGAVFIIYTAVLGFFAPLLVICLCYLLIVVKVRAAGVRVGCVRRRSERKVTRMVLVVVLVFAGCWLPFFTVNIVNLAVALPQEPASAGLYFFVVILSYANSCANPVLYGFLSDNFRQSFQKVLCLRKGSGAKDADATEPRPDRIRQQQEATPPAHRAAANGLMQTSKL
From the text: as §1

[5] = Lack of toxicity of cyclized peptide analogs in rats; format: in vivo
From the text: These two doses are several orders of magnitude higher than those needed to elicit the desired endocrine effect. The peptides dissolved in saline produced no untoward side effects on the central nervous system, cardiovascular system, body temperature, nor on the periphery of the animals.

[6] = biological target: T4, bradykinin receptors (Rattus norvegicus, UniProt P25023); experiment: Bradykinin antagonist assay, (3H)dopamine release from PC 12 cells; format: cell-based; settings: At 10^-6 M; (3H)dopamine release from PC 12 cells stimulated by bradykinin
T4 construct: PC 12 cells that express bradykinin receptors; endogenous in cells; host or cells: PC12 cells
T4 sequence (P25023 1-396): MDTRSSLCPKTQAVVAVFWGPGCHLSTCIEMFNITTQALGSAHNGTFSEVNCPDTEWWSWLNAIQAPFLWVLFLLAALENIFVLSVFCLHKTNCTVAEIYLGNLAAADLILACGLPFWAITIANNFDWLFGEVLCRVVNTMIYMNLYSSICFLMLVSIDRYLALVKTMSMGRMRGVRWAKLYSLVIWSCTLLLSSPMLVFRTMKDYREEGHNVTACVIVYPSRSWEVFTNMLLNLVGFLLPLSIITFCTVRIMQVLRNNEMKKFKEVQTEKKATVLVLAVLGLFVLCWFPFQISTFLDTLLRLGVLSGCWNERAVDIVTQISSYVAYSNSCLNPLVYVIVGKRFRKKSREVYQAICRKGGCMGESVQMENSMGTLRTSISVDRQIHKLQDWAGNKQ
Protocol: Novel backbone cyclized peptide analogs of the present invention were assayed in vitro for bradykinin antagonist activity by protection of (^3 H) dopamine release from PC 12 cells that express bradykinin receptors. PC12 cells were grown in Dulbecco Modified Eagle's medium with high glucose, supplemented with 10% horse serum, 5% fetal calf serum, 130 units/ml penicillin and 0.1 mg/ml streptomycin. For experiments, cells were removed from the medium using 1 mmole EDTA and replated on collagen coated-12-well plates and assayed 24 hr later. Release of (^3 H)dopamine was determined as follows: cells were incubated for 1.5 hr at 37° C. with 0.5 ml of growth medium and […] (^3 H)DA (41 Ci/mmole) and […] pargyline followed by extensive washing with medium (3×1 ml) and release buffer consisting of (mM): 130 NaCl; 5 KCl; 25 NaHCO3; 1 NaH2 PO4; 10 glucose and 1.8 CaCl2. In a typical experiment, cells were incubated with 0.5 ml buffer for 5 consecutive incubation periods of 3 min each at 37° C. Spontaneous (^3 H)DA release was measured by collecting the medium released by the cells successively for the first 3 min period. Antagonists were added to the cells 3 min prior to stimulation (at the second period), and stimulation of (^3 H)DA release by 100 nmole of bradykinin are monitored during the 3 period by 60 mmole KCl. The remaining of the (^3 H)DA was extracted from the cells by over night incubation with 0.5 ml 0.1N HCl. (^3 H)DA release during each 3 min period was expressed as a % of the total (^3 H)DA content of the cells. Net evoked release was calculated from (^3 H)DA release during stimulation period after subtracting basal (^3 H)DA release in the preceding baseline period if not indicated otherwise.

[7] = At 10^-6 M, guinea-pig ileum, BK 2×10^-8 M, atropine 1 μM present

Compound | inhibition at 1 µM [3] | inhibition at 0.1 µM [3] | inhibition at 0.01 µM [3] | inhibition at 1 µM [4] | inhibition at 0.1 µM [4] | inhibition at 0.01 µM [4] | inhibition of BK activity [6] | inhibition of BK activity [1, 7] | other results
NC(N)=NCCC[C@H](NC(=O)[C@H](Cc1ccccc1)NC(=O)[C@@H]1CCCN1C(=O)[C@H](CO)NC(=O)[C@H](Cc1ccccc1)NC(=O)CNC(=O)[C@@H]1CCCN1C(=O)[C@@H]1CCCN1C(=O)[C@@H](N)CCCN=C(N)N)C(=O)O [BK, Arg^1 -Pro^2 -Pro^3 -Gly^4 -Phe^5 -Ser^6 -Pro^7 -Phe^8 -Arg^9, reference compound] (H-RPPGFSPFR-OH) | – | – | – | – | – | – | – | – | EC50 [1]: 20 nM
C[C@@H](O)[C@H](NC(=O)CN1CCNC(=O)CCN(C(=O)[C@H](N)Cc2ccccc2)CC(=O)N[C@@H](Cc2ccccc2)C(=O)N[C@H](Cc2c[nH]c3ccccc23)C(=O)N[C@@H](CCCCN)C(=O)N[C@@H]([C@@H](C)O)C1=O)C(N)=O [PTR 3002] (H-[dF][N(CH2CH2CO)Gly]F[dW]KT[N(2-Aminoethyl)Gly]T-NH2; lactam 2-7) | – | – | – | – | – | – | – | – | in vitro biostability in human serum [2]: as stable as octreotide, is more stable than the corresponding non-cyclic structure, and is much more stable than SRIF
C[C@@H](O)[C@H](NC(=O)CNC(=O)[C@@H](NC(=O)[C@H](CCCCN)NC(=O)[C@@H](Cc1c[nH]c2ccccc12)NC(=O)[C@H](Cc1ccccc1)NC(=O)CNC(=O)[C@H](N)Cc1ccccc1)[C@@H](C)O)C(N)=O [PTR 3003] (H-[dF]GF[dW]KTGT-NH2) | 16% | 3% | 0% | 55% | 20% | 0% | – | – | –
C[C@@H](O)[C@H](NC(=O)CN1CCCNC(=O)CN(C(=O)[C@H](N)Cc2ccccc2)CC(=O)N[C@@H](Cc2ccccc2)C(=O)N[C@H](Cc2c[nH]c3ccccc23)C(=O)N[C@@H](CCCCN)C(=O)N[C@@H]([C@@H](C)O)C1=O)C(N)=O [PTR 3004] | 0% | 0% | 0% | 14% | 0% | 0% | – | – | –
C[C@@H](O)[C@H](NC(=O)CN1CCCNC(=O)CCN(C(=O)[C@H](N)Cc2ccccc2)CC(=O)N[C@@H](Cc2ccccc2)C(=O)N[C@H](Cc2c[nH]c3ccccc23)C(=O)N[C@@H](CCCCN)C(=O)N[C@@H]([C@@H](C)O)C1=O)C(N)=O [PTR 3007] (H-[dF][N(CH2CH2CO)Gly]F[dW]KT[NGly(3-aminopropyl)]T-NH2; lactam 2-7) | 0% | 0% | 0% | 19% | 9% | 0% | – | – | respiratory disturbances, stereotyped behavior, muscle tone ([5]; rats observed for 4 hours post administration): produced no respiratory disturbances, did not result in the appearance of stereotyped behavior, or produce any changes in muscle tone; tolerability ([5]; rats, 1.5 mg/kg, single intraperitoneal application): well tolerated
C[C@@H](O)[C@H](NC(=O)CN1CCC(=O)NCCCN(C(=O)[C@H](N)Cc2ccccc2)CC(=O)N[C@@H](Cc2ccccc2)C(=O)N[C@H](Cc2c[nH]c3ccccc23)C(=O)N[C@@H](CCCCN)C(=O)N[C@@H]([C@@H](C)O)C1=O)C(N)=O [PTR 3010] (H-[dF][NGly(3-aminopropyl)]F[dW]KT[N(CH2CH2CO)Gly]T-NH2; lactam 2-7) | 0% | 0% | 0% | 63% | 26% | 9% | – | – | –
Ada-(D)Arg-Arg-cyclo(N^α (1-(6-aminohexylene)Gly-Hyp-Phe-D-Asp)-D-Phe-Phe-Arg-OH [Example 1] | – | – | – | – | – | – | 30% | – | inhibition of BK activity [1]: 24%
Ada-D-Arg-Arg-N^α (6-acetamidohexylene)Gly-Hyp-Phe-D-Asp(NH-Me)-D-Phe-Phe-Arg-OH [Example 2] | – | – | – | – | – | – | 0% | 0% | –
H-D-Arg-Arg-cyclo(N^α (1-(4-propanoyl))Gly-Hyp-Phe-N^α (3-amido-propylene)Gly)-Ser-D-Phe-Phe-Arc-OH [Example 3] | – | – | – | – | – | – | – | 10% | –
H-D-Arg-Arg-cyclo(N^α (4-propanoyl)Gly-Hyp-Phe-N^α (3-amido-propyl)-S-Phe)-Ser-D-Phe-Phe-Arg-OH [Example 4] | – | – | – | – | – | – | 17% | 17% | –

— patent US5874529A, “Conformationally constrained backbone cyclized peptide analogs” (Peptor Ltd., priority 1994, dated 1999)
